Experimental data published in US10934255B2, “Nrf and HIF activators/HDAC inhibitors and therapeutic methods using the same” (THE BOARD OF TRUSTEES OF THE UNIVERSITY OF ILLINOIS, priority 2017, dated 2021).
Like-named read-outs stand apart in the source and are kept apart here.

Target: T1, Human HDAC1 (Homo sapiens, UniProt Q13547)
T1 construct: Full length with C-terminal GST tag, MW=79.9 kDa; GST (C); host or cells: Sf9 insect cells (baculovirus)
Assay: HDAC1 inhibition assay (fluorogenic p53 peptide substrate)
Format: biochemical
Description: The HDAC1, 2, 4, 5, 6, 7, 8, 9, 10, and 11 assays used isolated recombinant human protein; HDAC3/NcoR2 complex was used for the HDAC3 assay. Substrate for HDAC1, 2, 3, 6, 10, and 11 assays is a fluorogenic peptide from p53 residues 379-382 (RHKKAc); substrate for HDAC8 is fluorogenic diacyl peptide based on residues 379-382 of p53 (RHKAcKAc). Acetyl-Lys(trifluoroacetyl)-AMC substrate was used for HDAC4, 5, 7, and 9 assays. Compounds were dissolved in DMSO and tested in 10-dose IC50 mode with 3-fold serial dilution starting at 30 μM. Control Compound Trichostatin A (TSA) was tested in a 10-dose IC50 with 3-fold serial dilution starting at 5 μM. IC50 values were extracted by curve-fitting the dose/response slopes. Assays were performed in duplicate and IC50 values are an average of data from both experiments.
Human HDAC1 (GenBank Accession No. NM_004964): Full length with C-terminal GST tag, MW=79.9 kDa, expressed by baculovirus expression system in Sf9 cells. Enzyme is in 50 mM Tris-HCl, pH 8.0, 138 mM NaCl, 20 mM glutathione, and 10% glycerol, and stable for >6 months at −80° C. Purity is >10% by SDS-PAGE. Specific Activity is 20 U/μg, where one U=1 pmol/min under assay condition of 25 mM Tris/Cl, pH8.0, 137 mM NaCl, 2.7 mM KCl, 1 mM MgCl2, 0.1 mg/ml BSA, 100 μM HDAC substrate, and 13.2 ng/μl HDAC1, incubation for 30 min at 30° C.
Substrate for HDAC1 and HDAC6: Acetylated peptide substrate for HDAC, based on residues 379-382 of p53 (Arg-His-Lys-Lys(Ac)), a site of regulatory acetylation by the p300 and CBP acetyltransferases (lysines 381, 382)1-6, is the best for HDAC from among a panel of substrates patterned on p53, histone H3 and histone H4 acetylation sites7.
Reaction Buffer: 50 mM Tris-HCl, pH 8.0, 137 mM NaCl, 2.7 mM KCl, 1 mM MgCl2, 1 mg/ml BSA.
HDAC1: 75 nM HDAC1 and 50 μM HDAC substrate are in the reaction buffer and 1% DMSO final. Incubate for 2 hours at 30° C.
All IC50 values are automatically calculated using the GraphPad Prism version 5 and Equation of Sigmoidal dose-response (variable slope): Y=Bottom+(Top−Bottom)/(1+10^((Log EC50−X)*HillSlope)), where X is the logarithm of concentration, Y is the response, Y starts at Bottom and goes to Top with a sigmoid shape. In most cases, “Bottom” is set 0, and “Top” is set “less than 120%”. This is identical to the “four parameter logistic equation”. IC50 curves also are drawn using the GraphPad Prism, and IC50 values and Hill slopes are provided.
HDAC Activity Assays: HDAC assay is performed using fluorescently-labeled acetylated substrate, which comprises an acetylated lysine side chain. After incubation with HDAC, deacetylation of the substrate sensitizes the substrate such that, in a second step, treatment with the detection enzyme produces a fluorophore. HDACs 1 and 6 were expressed as full length fusion proteins. Purified proteins were incubated with 50 μM fluorescently-labeled acetylated peptide substrate and test compound for 2 hours at RT in HDAC assay buffer containing 50 mM Tris-HCl (pH 8.0), 137 mM NaCl, 2.7 mM KCl, 1 mM MgCl2, 1% DMSO, and 1% BSA.
Reactions were terminated by the addition of the Developer after 2 hours, and the development of fluorescence signal, which was relative to the amount of deacetylated peptide, was monitored by time-course measurement of EnVision (PerkinElmer). The HDAC activity was estimated from the slope of time-course measurement of the fluorescence intensity. The slope of no-enzyme control (substrate alone) was served as background, and % Enzyme activity was calculated using background-subtracted slope of no inhibitor control (DMSO) as 100% activity.

[1] = Table 1, performed by Reaction Biology Corporation, read-out: HDAC isoform IC50 (nM) 1
[2] = Table 2 isoform selectivity, read-out: HDAC Inhibition (IC50 uM) isoform 1

T1 sequence (Q13547 whole entry): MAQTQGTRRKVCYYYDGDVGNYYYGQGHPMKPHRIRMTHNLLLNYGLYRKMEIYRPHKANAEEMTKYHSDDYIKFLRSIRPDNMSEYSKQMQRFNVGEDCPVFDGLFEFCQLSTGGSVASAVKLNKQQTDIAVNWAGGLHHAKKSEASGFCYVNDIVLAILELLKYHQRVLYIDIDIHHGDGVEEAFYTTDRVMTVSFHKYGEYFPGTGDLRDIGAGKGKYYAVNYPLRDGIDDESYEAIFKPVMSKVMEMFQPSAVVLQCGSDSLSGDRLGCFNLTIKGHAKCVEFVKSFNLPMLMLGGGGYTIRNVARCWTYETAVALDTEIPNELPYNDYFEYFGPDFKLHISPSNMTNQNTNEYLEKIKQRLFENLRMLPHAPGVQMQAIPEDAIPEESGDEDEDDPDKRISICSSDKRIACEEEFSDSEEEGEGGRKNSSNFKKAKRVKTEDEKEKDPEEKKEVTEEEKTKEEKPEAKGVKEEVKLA

| SMILES | IC50 [1] [nM] | IC50 [2] [nM] |
| --- | --- | --- |
| O=C(NO)c1ccc(CN2C(=O)C(F)(F)c3ccccc32)cc1 [II-ING-66, 4-((3,3-Difluoro-2-oxoindolin-1-yl)methyl)-N-hydroxybenzamide] | 3550 | – |
| O=C(NO)c1ccc(CN2CCc3cc(Cl)ccc32)cc1 [II-ING-39, 4-((5-Chloroindolin-1-yl)methyl)-N-hydroxybenzamide] | 12700 | – |
| O=C(NO)c1ccc(CN2CCc3ccccc32)cc1 [II-ING-44, N-Hydroxy-4-(indolin-1-ylmethyl)benzamide] | 17600 | – |
| COc1ccc2c(c1)CCN2Cc1ccc(C(=O)NO)cc1 [II-ING-49, N-Hydroxy-4-((5-methoxyindolin-1-yl)methyl)benzamide] | 4950 | – |
| O=C(NO)c1ccc(CN2CCc3ccc(Cl)cc32)cc1 [II-ING-6, 4-((6-Chloroindolin-1-yl)methyl)-N-hydroxybenzamide] | 5580 | 3770 |
| Cn1c(NCc2ccc(C(=O)NO)cc2)nc2ccccc21 [II-ING-13, N-Hydroxy-4-(((1-methyl-1H-benzo[d]imidazol-2-yl)amino)methyl)benzamide] | 2630 | 2550 |
| O=C(NO)c1ccc(CN2CCc3ccc(F)cc32)cc1 [II-ING-41, 4-((6-Fluoroindolin-1-yl)methyl)-N-hydroxybenzamide] | 11800 | 3670 |
| O=C(NO)c1ccc(CN2CCc3cc(F)ccc32)cc1 [II-ING-42, 4-((5-Fluoroindolin-1-yl)methyl)-N-hydroxybenzamide] | 20000 | – |
